Assay [1] addresses T1, human V2 receptor (Homo sapiens, UniProt P30518). The assay is described as follows: V2 vasopressin receptor functional activity (cAMP accumulation). Type of assay: cell-based. Further details: expressed in transfected cells; host or cells: HEK-293. Particulars: V2-HEK cells; block of vasopressin-stimulated cAMP accumulation; read-out: V2 (functional) IC50. (cAMP levels reflect the balance of adenylyl cyclase and phosphodiesterase activity.)

Assay [2] concerns the target T2, human V1a receptor (Homo sapiens, UniProt P37288).
T2 construct: expressed in transfected cells
The assay is described as follows: In-vitro binding assay (3H-arginine-8-vasopressin), V1a. Particulars: membrane containing human V1a receptor; 3H-arginine-8-vasopressin 0.65-0.75 nM. The procedure: (§1) Assay buffer is 50 mM Tris-Cl, 5 mM MgCl2, 0.1% BSA (pH 7.5) containing 5 μg/mL of aprotinin, leupeptin, pepstatin, 50 μg/mL bacitracin, and 1 mM Pefabloc (4-(2-aminoethyl)-benzenesulfonyl fluoride, hydrochloride manufactured by Roche Diagnostics Corporation, Indianapolis, Ind. and distributed by Boehringer Mannheim). H3 vasopressin is ^3H-arginine-8-vasopressin (NEN Life Sciences, Boston, Mass.; 68.5 Ci/mmol, final concentration in assay is 0.65-0.75 nM). Into the wells of a 96-well round bottom polypropylene plates are added buffer, test compound, membrane (containing human V1a or V2 receptor), and H3 vasopressin. The reaction plates are allowed to sit at room temperature for one hour. The samples are filtered through Unifilter GF/C plates (PerkinElmer Life Sciences, Boston, Mass.) presoaked in 0.3 polyethyleneimine. The plates are washed 5 times with cold physiological saline containing 0.05% Tween 20. After drying, the bottom of the filter plates are sealed and 0.025 mL of Microscint-20 (Packard Instrument Co, Meriden, Conn.) is added to each filter. The top of the plate is sealed, and the plate is counted. Non-specific binding is determined by the addition of 1.25 μM arginine-8-vasopressin in those wells.
(§2) The % inhibition for the test results was calculated according to the formula: […]
Where an IC50 value was not obtained, the percent inhibition values are shown in parentheses (*) and were obtained at a test concentration of 0.2 μM.

The target of assay [3] is T1, human V2 receptor. The assay can be described thus: In-vitro binding assay (3H-arginine-8-vasopressin), V2. The settings on record: for IC50: membrane containing human V2 receptor, 3H-arginine-8-vasopressin 0.65-0.75 nM. The procedure:
as §1, with “H3 vasopressin is ^3H-arginine-8-vasopressin (NEN Life Sciences, Boston, Mass.; 68.5 Ci/mmol, final concentration in assay is 0.65-0.75 nM).” left out, “counted.” for “counted. Non-specific binding is determined by the addition of 1.25 μM arginine-8-vasopressin in those wells.”
as §2

In assay [4] the target is T2, human V1a receptor. The assay can be described thus: cell-based.
The mark [5] stands for this setting: V1 (functional) IC50, V1a-HEK cells, inhibition of vasopressin-stimulated intracellular calcium mobilization.

T1 sequence (P30518 whole entry): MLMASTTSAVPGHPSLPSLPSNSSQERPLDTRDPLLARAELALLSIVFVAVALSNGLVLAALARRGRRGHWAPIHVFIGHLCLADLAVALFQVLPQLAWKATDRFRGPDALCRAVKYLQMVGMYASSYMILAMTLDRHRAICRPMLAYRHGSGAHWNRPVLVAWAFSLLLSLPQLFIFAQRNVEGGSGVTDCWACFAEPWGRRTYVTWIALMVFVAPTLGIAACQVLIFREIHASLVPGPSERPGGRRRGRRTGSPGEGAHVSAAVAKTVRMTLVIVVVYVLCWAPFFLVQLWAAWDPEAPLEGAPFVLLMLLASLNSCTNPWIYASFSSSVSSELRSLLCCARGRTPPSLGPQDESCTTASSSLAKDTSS
T2 sequence (P37288 whole entry): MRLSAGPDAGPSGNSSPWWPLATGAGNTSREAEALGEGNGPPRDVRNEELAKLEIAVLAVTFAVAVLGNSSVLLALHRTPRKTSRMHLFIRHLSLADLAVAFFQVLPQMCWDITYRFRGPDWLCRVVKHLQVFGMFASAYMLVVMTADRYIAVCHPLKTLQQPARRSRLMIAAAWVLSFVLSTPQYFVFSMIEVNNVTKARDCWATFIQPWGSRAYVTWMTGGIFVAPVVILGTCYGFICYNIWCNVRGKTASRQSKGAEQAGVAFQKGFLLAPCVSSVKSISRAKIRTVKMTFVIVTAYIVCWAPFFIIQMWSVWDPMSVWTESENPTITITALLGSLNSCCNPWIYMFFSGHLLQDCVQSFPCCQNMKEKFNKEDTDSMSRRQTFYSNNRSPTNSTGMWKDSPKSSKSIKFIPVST

Broadly, the IC50 is the concentration that gives 50% inhibition. As a reminder, the inhibition is how much of the control response was suppressed. For `NCCON=C1CCCC12CCN(C(=O)c1ccc(NC(=O)c3cccc(F)c3)cc1)c1ccccc1C2` (stereo not shown) [Cpd 41, N-[4-(3-fluoro-phenylcarbonyl)amino-phenylcarbonyl]-2-(2-amino-ethoxy)imino-spiro[cyclopentane-1,4′-benzo[b]azepane]], the half-maximal inhibitory concentration (IC50) in assay [1] stood at 700 nM; in assay [2], 8 nM; in assay [4] it was 20 nM. Moreover, the inhibition at 0.2 µM in assay [3] (test concentration of 0.2 μM, read-out: V2 binding percent inhibition (in parentheses, where an IC50 value was not obtained)) is 55%.
`COc1cc(C(=O)N2CCC3(CCCC3=NO)Cc3ccccc32)ccc1NC(=O)c1cc(F)ccc1Cl` (stereo not shown) [Cpd 42, N-[3-methoxy-4-(2-chloro-5-fluoro-phenylcarbonyl)amino-phenylcarbonyl]-2-hydroxyimino-spiro[cyclopentane-1,4′-benzo[b]azepane]]: the IC50 in assay [1] was 92 nM; in assay [2], 12 nM; in assay [3], 39 nM; in assay [4] (setting [5]), 60 nM.
In the same order, the values of `O=C(Nc1ccc(C(=O)N2CCC3(CCCC3=NO)Cc3ccccc32)cc1)c1ccccc1-c1ccccc1` (stereo not shown) [Cpd 37, N-[4-(biphen-2-ylcarbonyl)amino-phenylcarbonyl]-2-hydroxyimino-spiro[cyclopentane-1,4′-benzo[b]azepane]] are 90 nM, 23 nM, 27 nM and 30 nM.
Regarding `NC1CCCC12CCN(C(=O)c1ccc(NC(=O)c3ccccc3-c3ccccc3)cc1)c1ccccc1C2` (stereo not shown) [Cpd 39, 2-amino-N-[4-(biphen-2-ylcarbonyl)amino-phenylcarbonyl]-spiro[cyclopentane-1,4′-benzo[b]azepane]], the 50% inhibitory concentration (IC50) in assay [1] came to 690 nM; in assay [2], 80 nM; in assay [3] it was 110 nM; in assay [4], 730 nM.
With `Cn1ccnc1C1=CCCC12CCN(C(=O)c1ccc(NC(=O)c3cc(F)ccc3Cl)cc1)c1ccccc1C2` (stereo not shown) [Cpd 5, N-[4-(2-chloro-5-fluoro-phenylcarbonyl)amino-phenylcarbonyl]-2-(1-methyl-1H-imidazol-2-yl)-spiro[cyclopent-2-ene-1,4′-benzo[b]azepane]], the half-inhibitory concentration (IC50) in assay [1] was 66 nM; in assay [2] it was 9 nM; in assay [3], 84 nM; in assay [4], 130 nM.
In the case of `O=C(NN=C1CCCC12CCN(C(=O)c1ccc(NC(=O)c3cc(F)ccc3Cl)cc1)c1ccccc1C2)c1cccnc1` (stereo not shown) [Cpd 4, N-[4-(2-chloro-5-fluoro-phenylcarbonyl)amino-phenylcarbonyl]-2-pyridin-3-ylcarbonylaminoimino-spiro[cyclopentane-1,4′-benzo[b]azepane]], the 50% inhibitory concentration (IC50) came to 43 nM in assay [1], 12 nM in assay [2], 62 nM in assay [3] and 20 nM in assay [4] (setting [5]).
On to `NCC(=O)NC1CCCC12CCN(C(=O)c1ccc(NC(=O)c3ccccc3-c3ccccc3)cc1)c1ccccc1C2` (stereo not shown) [Cpd 40, 2-(aminomethylcarbonyl)amino-N-[4-(biphen-2-ylcarbonyl)amino-phenylcarbonyl]-spiro[cyclopentane-1,4′-benzo[b]azepane]], for which the IC50 in assay [1] is 200 nM; in assay [2] it was 23 nM; in assay [3], 15 nM; in assay [4] it was 290 nM.

(Values after US20080306044A1, “SPIROBENZOAZEPANES AS VASOPRESSIN ANTAGONISTS” (priority 2007, published 2008).)
